For 2 molecules, IC50 results are on record in publication PMC3644221 (Toxicology letters, 2013).

The target of this test is CYP1A1 (Homo sapiens, UniProt P04798). The experiment in a line: inhibition of CYP1A1-specific Luciferin-CEE activity. It counts as biochemical.
Sequence of CYP1A1 (P04798 whole entry): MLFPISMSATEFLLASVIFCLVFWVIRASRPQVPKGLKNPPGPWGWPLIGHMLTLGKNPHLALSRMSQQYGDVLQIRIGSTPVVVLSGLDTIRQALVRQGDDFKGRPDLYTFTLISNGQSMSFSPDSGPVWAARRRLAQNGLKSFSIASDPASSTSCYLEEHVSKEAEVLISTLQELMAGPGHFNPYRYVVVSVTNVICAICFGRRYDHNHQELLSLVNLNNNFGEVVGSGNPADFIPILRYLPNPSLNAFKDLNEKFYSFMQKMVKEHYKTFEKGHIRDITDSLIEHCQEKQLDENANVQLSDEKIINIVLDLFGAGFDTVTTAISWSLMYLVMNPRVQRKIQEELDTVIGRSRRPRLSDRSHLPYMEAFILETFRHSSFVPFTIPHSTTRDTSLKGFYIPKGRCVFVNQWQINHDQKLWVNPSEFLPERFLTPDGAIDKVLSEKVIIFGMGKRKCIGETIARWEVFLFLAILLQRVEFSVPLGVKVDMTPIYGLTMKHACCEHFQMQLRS

The term IC50 denotes the midpoint of a concentration-inhibition curve. For `Oc1cc(O)c2cc(O)c(-c3cc(O)c(O)c(O)c3)[o+]c2c1` [delphinidin], it took 77 µM to reach half-maximal inhibition (IC50).

With `Oc1ccc(-c2[o+]c3cc(O)cc(O)c3cc2O)cc1` [pelargonidin], inhibition was half-maximal at 33 µM (IC50).
